These results are taken from patent publication US9447044B2, “Thioaryl derivatives as GPR120 agonists” (LG LIFE SCIENCES LTD., priority 2012, dated 2016).

For orientation: EC50 means the midpoint of the concentration-response curve.

Bounds are passed on as bounds.

In one assay the target is T1, hGPR120 (Homo sapiens, UniProt Q5NUL3).
T1 construct: expressed in transfected cells; host or cells: CHO-K1
T1 sequence (Q5NUL3 1-361): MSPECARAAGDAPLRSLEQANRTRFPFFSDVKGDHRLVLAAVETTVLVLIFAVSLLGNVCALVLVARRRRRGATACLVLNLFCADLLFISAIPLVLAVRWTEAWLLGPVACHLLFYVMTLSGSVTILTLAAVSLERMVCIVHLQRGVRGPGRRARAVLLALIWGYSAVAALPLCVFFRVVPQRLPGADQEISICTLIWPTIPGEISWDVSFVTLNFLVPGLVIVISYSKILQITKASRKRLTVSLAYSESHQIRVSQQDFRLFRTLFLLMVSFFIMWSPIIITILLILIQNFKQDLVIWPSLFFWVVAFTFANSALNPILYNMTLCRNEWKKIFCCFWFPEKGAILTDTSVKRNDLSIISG
As to the kind of experiment: Measurement of activity of GPR120 agonist (cell-based assay), calcium fluorescence. The note with it: CHO-K1 cells expressing Ga16 and hGPR120; Calcium 5 dye fluorescence; activity class. In short, it runs like this: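 CHO-K1 cells co-expressing Gα16 and hGPR120, loaded with Calcium 5 dye for 1 h at 37° C, received serially diluted agonists (final 0.5% DMSO). Fluorescence (Ex 485/Em 525 nm) was expressed as relative percent over 0.1% DMSO-only wells; activity binned as A >20 μM, B 20–2 μM, C 2–0.2 μM, D <0.2 μM.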
As to `O=C(O)C1CC1c1cc(F)c(OCc2cccnc2SC2CCCC2)c(F)c1` (stereo not drawn) [Example 62, 2-[4-(2-cyclopentylsulfanyl-pyridin-3-ylmethoxy)-3,5-difluoro-phenyl]-cyclopropane carboxylic acid], the EC50 was less than 200 nM.

Take `O=C(O)C1CC1c1cc(F)c(OCc2cccnc2SCC2CC2)c(F)c1` (stereo not drawn) [Example 63, 2-[4-(2-cyclopropylmethylsulfanyl-pyridin-3-ylmethoxy)-3,5-difluoro-phenyl]-cyclopropane carboxylic acid]: the EC50 was less than 200 nM.

Take `CC(C)Sc1ncccc1COc1c(F)cc(C2CC2C(=O)O)cc1F` (stereo not drawn) [Example 65, 2-[3,5-difluoro-4-(2-isopropylsulfanyl-pyridin-3-ylmethoxy)-phenyl]-cyclopropane carboxylic acid]: the EC50 was less than 200 nM.

Regarding `CCCCSc1ncccc1COc1c(F)cc(C2CC2C(=O)O)cc1F` (stereo not drawn) [Example 66, 2-[4-(2-butylsulfanyl-pyridin-3-ylmethoxy)-3,5-difluoro-phenyl]-cyclopropane carboxylic acid], the EC50 is less than 200 nM.

For `CC(C)Sc1cccc(COc2ccc3c(c2)OCC3CC(=O)O)n1` (stereo not drawn) [Example 67, [6-(6-isopropylsulfanyl-pyridin-2-ylmethoxy)-2,3-dihydro-benzofuran-3-yl]-acetic acid], the EC50 was 200 to 2000 nM.

As to `O=C(O)CC1COc2cc(OCc3cccc(SC4CCCC4)n3)ccc21` (stereo not drawn) [Example 68, [6-(6-cyclopentylsulfanyl-pyridin-2-ylmethoxy)-2,3-dihydro-benzofuran-3-yl]-acetic acid], the EC50 fell in the range of 200 to 2000 nM.

As to `CC(C)Sc1ncccc1COc1ccc(CC(C)(C)C(=O)O)cc1` [Example 69, 3-[4-(2-isopropylsulfanyl-pyridin-3-ylmethoxy)-phenyl]-2,2-dimethyl-propionic acid], the EC50 lay in the range of 200 to 2000 nM.

For `Cc1ncc(COc2c(F)cc(CCC(=O)O)cc2F)c(SC(C)C)n1` [Example 71, 3-[3,5-difluoro-4-(4-isopropylsulfanyl-2-methyl-pyrimidin-5-ylmethoxy)-phenyl]-prop ionic acid], the EC50 lay within 200 to 2000 nM.

`COc1cc(CCC(=O)O)ccc1OCc1cccc(SC(C)C)n1` [Example 72, 3-[4-(6-isopropylsulfanyl-pyridin-2-ylmethoxy)-3-methoxy-phenyl]-propionic acid]: the concentration for a half-maximal effect (EC50) is less than 200 nM.

With `COc1cc(CCC(=O)O)ccc1OCc1cccc(SC2CCCC2)n1` [Example 73, 3-[4-(6-cyclopentylsulfanyl-pyridin-2-ylmethoxy)-3-methoxy-phenyl]-propionic acid], the EC50 fell in the range of 200 to 2000 nM.

In the case of `O=C(O)CC1COc2cc(OCc3cccnc3SC3CCCC3)ccc21` (stereo not drawn) [Example 74, [6-(2-cyclopentylsulfanyl-pyridin-3-ylmethoxy)-2,3-dihydro-benzofuran-3-yl]-acetic acid], the EC50 is less than 200 nM.

For the compound `O=C(O)C1CC1c1cc(F)c(OCc2cccc(SC3CCC3)n2)c(F)c1` (stereo not drawn) [Example 75, 2-[4-(6-cyclobutylsulfanyl-pyridin-2-ylmethoxy)-3,5-difluoro-phenyl]-cyclopropane carboxylic acid], the EC50 is less than 200 nM.

With `COc1ccc(COc2c(F)cc(CCC(=O)O)cc2F)c(SC2CCCC2)n1` [Example 76, 3-[4-(2-cyclopentylsulfanyl-6-methoxy-pyridin-3-ylmethoxy)-3,5-difluoro-phenyl]-propionic acid], the EC50 was 200 to 2000 nM.

Take `CC(C)Sc1ncccc1COc1ccc(CCC(=O)O)cc1Cl` [Example 77, 3-[3-chloro-4-(2-isopropylsulfanyl-pyridin-3-ylmethoxy)-phenyl]-propionic acid]: the EC50 is less than 200 nM.

Take `O=C(O)CCc1ccc(OCc2cccnc2SC2CCCC2)c(Cl)c1` [Example 78, 3-[3-chloro-4-(2-cyclopentylsulfanyl-pyridin-3-ylmethoxy)-phenyl]-propionic acid]: the EC50 is less than 200 nM.

As to `Cc1c(CCC(=O)O)ccc(OCc2cccnc2SC2CCCC2)c1C` [Example 80, 3-[4-(2-cyclopentylsulfanyl-pyridin-3-ylmethoxy)-2,3-dimethyl-phenyl]-propionic acid], the EC50 was less than 200 nM.

Regarding `O=C(O)C[C@@H]1COc2cc(OCc3cccnc3SC3CCCC3)ccc21` [Example 81, [(S)-6-(2-cyclopentylsulfanyl-pyridin-3-ylmethoxy)-2,3-dihydro-benzofuran-3-yl]-acetic acid], the EC50 was less than 200 nM.

Turning to `O=C(O)C[C@H]1COc2cc(OCc3cccnc3SC3CCCC3)ccc21` [Example 82, [(R)-6-(2-cyclopentylsulfanyl-pyridin-3-ylmethoxy)-2,3-dihydro-benzofuran-3-yl]-acetic acid], the EC50 was less than 200 nM.

Consider `O=C(O)C1CC1c1ccc(OCc2cccnc2SCC2CC2)c(F)c1` (stereo not drawn) [Example 84, 2-[4-(2-cyclopropylmethylsulfanyl-pyridin-3-ylmethoxy)-3-fluoro-phenyl]-cyclopropane carboxylic acid], for which the EC50 is less than 200 nM.

Regarding `O=C(O)C1CC1c1ccc(OCc2cccc(SC3CCCC3)n2)c(F)c1` (stereo not drawn) [Example 85, 2-[4-(6-cyclopentylsulfanyl-pyridin-2-ylmethoxy)-3-fluoro-phenyl]-cyclopropane carboxylic acid], the EC50 is less than 200 nM.

With `O=C(O)C1CC1c1ccc(OCc2cccc(SC3CCC3)n2)c(F)c1` (stereo not drawn) [Example 86, 2-[4-(6-cyclobutylsulfanyl-pyridin-2-ylmethoxy)-3-fluoro-phenyl]-cyclopropane carboxylic acid], the concentration for a half-maximal effect (EC50) is less than 200 nM.

For `CC(C)Sc1ncccc1COc1ccc(C2CC2C(=O)O)c(Cl)c1` (stereo not drawn) [Example 89, 2-[2-chloro-4-(2-isopropylsulfanyl-pyridin-3-ylmethoxy)-phenyl]-cyclopropane carboxylic acid], the EC50 fell in the range of 200 to 2000 nM.

Take `O=C(O)C1CC1c1ccc(OCc2cccc(SC3CCC3)n2)cc1Cl` (stereo not drawn) [Example 90]: the EC50 was less than 200 nM.

Take `CC(Cc1ccc(OCc2cccnc2SCC2CC2)c(Cl)c1)C(=O)O` (stereo not drawn) [Example 91, 3-[3-chloro-4-(2-cyclopropylmethylsulfanyl-pyridin-3-ylmethoxy)-phenyl]-2-methyl-propionic acid]: the EC50 is less than 200 nM.

In the case of `CCCSc1ncccc1COc1ccc(CC(C)C(=O)O)cc1Cl` (stereo not drawn) [Example 92, 3-[3-chloro-4-(2-propylsulfanyl-pyridin-3-ylmethoxy)-phenyl]-2-methyl-propionic acid], the EC50 is less than 200 nM.

`CC(C)Sc1cccc(COc2ccc(CC(C)C(=O)O)cc2Cl)n1` (stereo not drawn) [Example 93, 3-[3-chloro-4-(6-isopropylsulfanyl-pyridin-2-ylmethoxy)-phenyl]-2-methyl-propionic acid]: the EC50 is less than 200 nM.

With `CC(Cc1ccc(OCc2cccc(SC3CCCC3)n2)c(Cl)c1)C(=O)O` (stereo not drawn) [Example 94, 3-[3-chloro-4-(6-cyclopentylsulfanyl-pyridin-2-ylmethoxy)-phenyl]-2-methyl-propionic acid], the EC50 is less than 200 nM.

Consider `CC(Cc1ccc(OCc2cccc(SC3CCC3)n2)c(Cl)c1)C(=O)O` (stereo not drawn) [Example 96, 3-[3-chloro-4-(6-cyclobutylsulfanyl-pyridin-2-ylmethoxy)-phenyl]-2-methyl-propionic acid], for which the EC50 was less than 200 nM.

Consider `CC(C)Sc1ncccc1COc1ccc(C2CC2C(=O)O)cc1Cl` (stereo not drawn) [Example 97, 2-[3-chloro-4-(2-isopropylsulfanyl-pyridin-3-ylmethoxy)-phenyl]-cyclopropane carboxylic acid], for which the EC50 was less than 200 nM.

Still in this assay, the particulars now being: CHO-K1 cells expressing Ga16 and hGPR120; Calcium 5 dye fluorescence; numeric value.
On to `CC(C)Sc1cccc(COc2c(F)cc(C3CC3C(=O)O)cc2F)n1` (stereo not drawn) [Example 64, 2-[3,5-difluoro-4-(6-isopropylsulfanyl-pyridin-2-ylmethoxy)-phenyl]-cyclopropane carboxylic acid], for which the 50% effective concentration (EC50) worked out at 108 nM.

For the compound `CC(C)Sc1cccc(COc2ccc(CC(C)(C)C(=O)O)cc2)n1` [Example 70, 3-[4-(6-isopropylsulfanyl-pyridin-2-ylmethoxy)-phenyl]-2,2-dimethyl-propionic acid], the EC50 turned out to be 1880 nM.

Take `Cc1c(CCC(=O)O)ccc(OCc2cccnc2SC(C)C)c1C` [Example 79, 3-[4-(2-isopropylsulfanyl-pyridin-3-ylmethoxy)-2,3-dimethyl-phenyl]-propionic acid]: the EC50 turned out to be 33 nM.

`CC(C)Sc1ncccc1COc1ccc(C2CC2C(=O)O)cc1F` (stereo not drawn) [Example 83, 2-[3-fluoro-4-(2-isopropylsulfanyl-pyridin-3-ylmethoxy)-phenyl]-cyclopropane carboxylic acid]: the EC50 was found to be 110 nM.

In the case of `O=C(O)C1CC1c1ccc(OCc2cccnc2SC2CCCC2)c(F)c1` (stereo not drawn) [Example 87, 2-[4-(2-cyclopentylsulfanyl-pyridin-3-ylmethoxy)-3-fluoro-phenyl]-cyclopropane carboxylic acid], the EC50 was found to be 64000 nM.

As for `O=C(O)C1CC1c1ccc(OCc2cccnc2SC2CCC2)c(F)c1` (stereo not drawn) [Example 88, 2-[4-(2-cyclobutylsulfanyl-pyridin-3-ylmethoxy)-3-fluoro-phenyl]-cyclopropane carboxylic acid], the EC50 came out at 57000 nM.

As to `CC(Cc1ccc(OCc2cccnc2SC2CCC2)c(Cl)c1)C(=O)O` (stereo not drawn) [Example 95, 3-[3-chloro-4-(2-cyclobutylsulfanyl-pyridin-3-ylmethoxy)-phenyl]-2-methyl-propionic acid], the half-maximal effective concentration (EC50) came to 88 nM.
